Experimental data: patent US8940724B2, “Quinoline derivitives and their uses” (Amgen Inc., priority 2009, dated 2015)

The molecules below were run against T1, PI3Kδ (Homo sapiens, UniProt O00329) (assay: PI3Kδ Alphascreen assay).
T1 construct: Full length p110 subunits of PI3k α, β and δ, N-terminally labeled with polyHis tag; polyHis (N); made in house; host or cells: Sf9 insect cells (baculovirus)
Format: biochemical

T1 sequence (O00329 whole entry): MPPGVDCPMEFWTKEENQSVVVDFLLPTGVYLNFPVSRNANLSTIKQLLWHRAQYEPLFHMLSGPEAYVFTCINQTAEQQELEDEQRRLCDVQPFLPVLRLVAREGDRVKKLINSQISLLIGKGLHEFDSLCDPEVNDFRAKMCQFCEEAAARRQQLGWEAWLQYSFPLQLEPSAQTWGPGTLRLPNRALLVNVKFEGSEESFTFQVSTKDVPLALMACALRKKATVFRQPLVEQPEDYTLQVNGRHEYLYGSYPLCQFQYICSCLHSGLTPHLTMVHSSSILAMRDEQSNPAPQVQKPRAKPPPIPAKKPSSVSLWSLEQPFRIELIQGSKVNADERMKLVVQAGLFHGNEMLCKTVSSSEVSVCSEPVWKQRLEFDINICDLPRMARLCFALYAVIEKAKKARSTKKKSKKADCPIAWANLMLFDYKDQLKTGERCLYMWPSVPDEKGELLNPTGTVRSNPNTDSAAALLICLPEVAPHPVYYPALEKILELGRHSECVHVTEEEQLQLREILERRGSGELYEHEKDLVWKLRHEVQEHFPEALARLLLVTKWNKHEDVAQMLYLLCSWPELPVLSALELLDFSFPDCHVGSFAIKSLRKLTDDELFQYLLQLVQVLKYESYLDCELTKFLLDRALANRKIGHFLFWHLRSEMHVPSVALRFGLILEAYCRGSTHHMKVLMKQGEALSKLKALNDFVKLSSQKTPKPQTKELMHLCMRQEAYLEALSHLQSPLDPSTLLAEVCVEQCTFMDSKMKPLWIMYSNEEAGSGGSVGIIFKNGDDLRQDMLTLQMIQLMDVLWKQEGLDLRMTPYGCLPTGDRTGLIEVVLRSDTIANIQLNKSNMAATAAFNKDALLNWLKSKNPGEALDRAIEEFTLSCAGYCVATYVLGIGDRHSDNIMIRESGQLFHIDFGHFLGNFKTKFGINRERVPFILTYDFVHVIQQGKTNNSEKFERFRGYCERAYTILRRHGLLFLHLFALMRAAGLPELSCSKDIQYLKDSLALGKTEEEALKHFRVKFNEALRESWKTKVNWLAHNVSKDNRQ
T1 sequence (P27986 whole entry partner): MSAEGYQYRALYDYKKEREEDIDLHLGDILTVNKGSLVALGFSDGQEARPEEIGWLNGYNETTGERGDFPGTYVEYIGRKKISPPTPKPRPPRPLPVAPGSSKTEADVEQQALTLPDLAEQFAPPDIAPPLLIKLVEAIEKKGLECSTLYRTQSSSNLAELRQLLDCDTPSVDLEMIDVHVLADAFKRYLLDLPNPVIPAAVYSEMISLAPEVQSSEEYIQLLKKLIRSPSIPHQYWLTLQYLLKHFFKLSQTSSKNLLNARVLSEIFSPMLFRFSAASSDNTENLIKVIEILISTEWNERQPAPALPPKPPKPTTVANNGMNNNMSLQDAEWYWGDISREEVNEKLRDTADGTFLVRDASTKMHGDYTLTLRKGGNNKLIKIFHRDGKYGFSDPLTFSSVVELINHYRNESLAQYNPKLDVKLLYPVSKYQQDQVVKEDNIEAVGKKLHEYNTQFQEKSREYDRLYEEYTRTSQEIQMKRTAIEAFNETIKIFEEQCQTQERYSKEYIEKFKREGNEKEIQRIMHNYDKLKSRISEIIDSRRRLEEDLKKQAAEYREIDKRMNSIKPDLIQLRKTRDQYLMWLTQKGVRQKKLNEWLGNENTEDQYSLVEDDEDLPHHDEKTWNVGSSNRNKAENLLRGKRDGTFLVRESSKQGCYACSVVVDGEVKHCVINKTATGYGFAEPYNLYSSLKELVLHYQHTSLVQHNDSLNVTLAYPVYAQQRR

Row | Structure (SMILES) | Ki
1 | CC(=O)c1ccc(S(C)(=O)=O)c(-c2nc3cc(F)cc(F)c3c(Nc3cncc(N4CCOCC4)c3)c2C)c1 [1-(3-(5,7-difluoro-3-methyl-4-((5-(4-morpholinyl)-3-pyridinyl)-amino)-2-quinolinyl)-4-(methylsulfonyl)phenyl)ethanone] | 2.18 nM
2 | Cc1c(N2CCC2=O)nc2cc(F)cc(F)c2c1Nc1cncc(N2CCOCC2)c1 [1-(5,7-difluoro-3-methyl-4-((5-(4-morpholinyl)-3-pyridinyl)-amino)-2-quinolinyl)-2-azetidinone] | 27.2 nM
3 | Cc1c(N2CCCCC2=O)nc2cc(F)cc(F)c2c1Nc1cncc(N2CCOCC2)c1 [1-(5,7-difluoro-3-methyl-4-((5-(4-morpholinyl)-3-pyridinyl)-amino)-2-quinolinyl)-2-piperidinone] | 203 nM
4 | Cc1c(N2CC(C)(C)CC2=O)nc2cc(F)cc(F)c2c1Nc1cncc(N2CCOCC2)c1 [1-(5,7-difluoro-3-methyl-4-((5-(4-morpholinyl)-3-pyridinyl)-amino)-2-quinolinyl)-4,4-dimethyl-2-pyrrolidinone] | 21.4 nM
5 | Cc1c(N2CC(C)(C)CCC2=O)nc2cc(F)cc(F)c2c1Nc1cncc(N2CCOCC2)c1 [1-(5,7-difluoro-3-methyl-4-((5-(4-morpholinyl)-3-pyridinyl)-amino)-2-quinolinyl)-5,5-dimethyl-2-piperidinone] | 38.6 nM
6 | Cc1c(N2CCC[C@@H]2C(=O)O)nc2cc(F)cc(F)c2c1Nc1cncc(N2CCOCC2)c1 [1-(5,7-difluoro-3-methyl-4-((5-(4-morpholinyl)-3-pyridinyl)-amino)-2-quinolinyl)-D-proline] | 59.9 nM
7 | Cc1c(N2CCC[C@H]2C(=O)O)nc2cc(F)cc(F)c2c1Nc1cncc(N2CCOCC2)c1 [1-(5,7-difluoro-3-methyl-4-((5-(4-morpholinyl)-3-pyridinyl)-amino)-2-quinolinyl)-L-proline] | 9.37 nM
8 | CNC(=O)[C@H]1CCCN1c1nc2cc(F)cc(F)c2c(Nc2cncc(N3CCOCC3)c2)c1C [1-(5,7-difluoro-3-methyl-4-((5-(4-morpholinyl)-3-pyridinyl)-amino)-2-quinolinyl)-N-methyl-D-prolinamide] | 10.4 nM
9 | Cc1c(-c2ccc(N3CCC(O)C3)nc2)nc2cc(F)cc(F)c2c1Nc1cc(N2CCOCC2)cnc1N1CCOCC1 (stereo not drawn) [1-(5-(4-((2,5-di-4-morpholinyl-3-pyridinyl)amino)-5,7-difluoro-3-methyl-2-quinolinyl)-2-pyridinyl)-3-pyrrolidinol] | 36.3 nM
10 | Cc1c(N2CCN(C(=O)OC(C)C)CC2)nc2cc(F)cc(F)c2c1Nc1cncc(N2CCOCC2)c1 [1-methylethyl 4-(5,7-difluoro-3-methyl-4-((5-(4-morpholinyl)-3-pyridinyl)amino)-2-quinolinyl)-1-piperazinecarboxylate] | 38.8 nM
11 | Cc1cccc(-c2nc3cc(F)cc(F)c3c(Nc3cc(N4CCOCC4)cnc3N3CCOCC3)c2C)c1C [2-(2,3-dimethylphenyl)-N-(2,5-di-4-morpholinyl-3-pyridinyl)-5,7-difluoro-3-methyl-4-quinolinamine] | 12.9 nM
12 | Cc1ccc(-c2nc3cc(F)cc(F)c3c(Nc3cc(N4CCOCC4)cnc3N3CCOCC3)c2C)c(C)c1 [2-(2,4-dimethylphenyl)-N-(2,5-di-4-morpholinyl-3-pyridinyl)-5,7-difluoro-3-methyl-4-quinolinamine] | 26.8 nM
13 | Cc1ccc(-c2nc3cc(F)cc(F)c3c(Nc3cc(N4CCOCC4)cnc3N3CCOCC3)c2C)cc1C [2-(3,4-dimethylphenyl)-N-(2,5-di-4-morpholinyl-3-pyridinyl)-5,7-difluoro-3-methyl-4-quinolinamine] | 101 nM
14 | Cc1c(-c2cc(F)cc(F)c2)nc2ncccc2c1Nc1cc(N2CCOCC2)ccc1N1CCOCC1 [2-(3,5-difluorophenyl)-N-(2,5-di-4-morpholinylphenyl)-3-methyl-1,8-naphthyridin-4-amine] | 582 nM
15 | Cc1c(N2CCN(CC(C)(C)C)CC2)nc2cc(F)cc(F)c2c1Nc1cncc(N2CCOCC2)c1 [2-(4-(2,2-dimethylpropyl)-1-piperazinyl)-5,7-difluoro-3-methyl-N-(5-(4-morpholinyl)-3-pyridinyl)-4-quinolinamine] | 98.8 nM
16 | Cc1c(N2CCN(S(=O)(=O)C3CCCC3)CC2)nc2cc(F)cc(F)c2c1Nc1cncc(N2CCOCC2)c1 [2-(4-(cyclopentylsulfonyl)-1-piperazinyl)-5,7-difluoro-3-methyl-N-(5-(4-morpholinyl)-3-pyridinyl)-4-quinolinamine] | 51 nM
17 | CC(=O)N1CCN(c2nc3cc(F)cc(F)c3c(Nc3cncc(N4CCOCC4)c3)c2C)CC1 [2-(4-acetyl-1-piperazinyl)-5,7-difluoro-3-methyl-N-(5-(4-morpholinyl)-3-pyridinyl)-4-quinolinamine] | 33.6 nM
18 | Cc1c(N2CCN(C3CCCCC3)CC2)nc2cc(F)cc(F)c2c1Nc1cncc(N2CCOCC2)c1 [2-(4-cyclohexyl-1-piperazinyl)-5,7-difluoro-3-methyl-N-(5-(4-morpholinyl)-3-pyridinyl)-4-quinolinamine] | 28.4 nM
19 | CCN1CCN(c2nc3cc(F)cc(F)c3c(Nc3cncc(N4CCOCC4)c3)c2C)CC1 [2-(4-ethyl-1-piperazinyl)-5,7-difluoro-3-methyl-N-(5-(4-morpholinyl)-3-pyridinyl)-4-quinolinamine] | 15.3 nM
20 | Cc1c(-c2cncc(Cl)c2)nc2cc(F)cc(F)c2c1Nc1cc(N2CCOCC2)cnc1N1CCOCC1 [2-(5-chloro-3-pyridinyl)-N-(2,5-di-4-morpholinyl-3-pyridinyl)-5,7-difluoro-3-methyl-4-quinolinamine] | 11.2 nM
21 | Cc1c(-c2ccc(N3CC[C@@H](N(C)C)C3)nc2)nc2cc(F)cc(F)c2c1Nc1cc(N2CCOCC2)cnc1N1CCOCC1 [2-(6-((3R)-3-(dimethylamino)-1-pyrrolidinyl)-3-pyridinyl)-N-(2,5-di-4-morpholinyl-3-pyridinyl)-5,7-difluoro-3-methyl-4-quinolinamine] | 28.4 nM
22 | Cc1c(-c2ccc(OCC3CC3)nc2)nc2cc(F)cc(F)c2c1Nc1cc(N2CCOCC2)cnc1N1CCOCC1 [2-(6-(cyclopropylmethoxy)-3-pyridinyl)-N-(2,5-di-4-morpholinyl-3-pyridinyl)-5,7-difluoro-3-methyl-4-quinolinamine] | 47.6 nM
23 | CCOc1ccc(-c2nc3cc(F)cc(F)c3c(Nc3cncc(N4CCOCC4)c3)c2C)cn1 [2-(6-ethoxy-3-pyridinyl)-5,7-difluoro-3-methyl-N-(5-(4-morpholinyl)-3-pyridinyl)-4-quinolinamine] | 291 nM
24 | Cc1ccnc(-c2nc3c(C#N)cccc3c(Nc3cncc(N4CCOCC4)c3)c2C)c1 [3-methyl-2-(4-methyl-2-pyridinyl)-4-((5-(4-morpholinyl)-3-pyridinyl)amino)-8-quinolinecarbonitrile] | 57.3 nM

Further molecules by falling Ki, results first:

Row | Ki | Structure (SMILES)
25 | 344 nM | Cc1c(-c2ccc(C(F)(F)F)cc2C(F)(F)F)nc2cc(F)cc(F)c2c1Nc1cc(N2CCOCC2)cnc1N1CCOCC1 [2-(2,4-bis(trifluoromethyl)phenyl)-N-(2,5-di-4-morpholinyl-3-pyridinyl)-5,7-difluoro-3-methyl-4-quinolinamine]
26 | 180 nM | Cc1c(-c2ccc(N(C)C)nc2)nc2cc(F)cc(F)c2c1Nc1cncc(N2CCOCC2)c1 [2-(6-(dimethylamino)-3-pyridinyl)-5,7-difluoro-3-methyl-N-(5-(4-morpholinyl)-3-pyridinyl)-4-quinolinamine]
27 | 108 nM | Cc1c(N2CCN(C(=O)OCC(C)C)CC2)nc2cc(F)cc(F)c2c1Nc1cncc(N2CCOCC2)c1 [2-methylpropyl 4-(5,7-difluoro-3-methyl-4-((5-(4-morpholinyl)-3-pyridinyl)amino)-2-quinolinyl)-1-piperazinecarboxylate]
28 | 99 nM | Cc1c(N2CCN(C(=O)OCC(C)(C)C)CC2)nc2cc(F)cc(F)c2c1Nc1cncc(N2CCOCC2)c1 [2,2-dimethylpropyl 4-(5,7-difluoro-3-methyl-4-((5-(4-morpholinyl)-3-pyridinyl)amino)-2-quinolinyl)-1-piperazinecarboxylate]
29 | 88.4 nM | CCS(=O)(=O)N1CCN(c2nc3cc(F)cc(F)c3c(Nc3cncc(N4CCOCC4)c3)c2C)CC1 [2-(4-(ethylsulfonyl)-1-piperazinyl)-5,7-difluoro-3-methyl-N-(5-(4-morpholinyl)-3-pyridinyl)-4-quinolinamine]
30 | 43.5 nM | Cc1c(-c2ccc(N3CCC(F)(F)CC3)nc2)nc2cc(F)cc(F)c2c1Nc1cc(N2CCOCC2)cnc1N1CCOCC1 [2-(6-(4,4-difluoro-1-piperidinyl)-3-pyridinyl)-N-(2,5-di-4-morpholinyl-3-pyridinyl)-5,7-difluoro-3-methyl-4-quinolinamine]
31 | 42 nM | Cc1c(N2CCN(C(=O)C3CCCC3)CC2)nc2cc(F)cc(F)c2c1Nc1cncc(N2CCOCC2)c1 [2-(4-(cyclopentylcarbonyl)-1-piperazinyl)-5,7-difluoro-3-methyl-N-(5-(4-morpholinyl)-3-pyridinyl)-4-quinolinamine]
32 | 24.4 nM | Cc1c(-c2ccc(N(C)C)nc2)nc2cc(F)cc(F)c2c1Nc1cc(N2CCOCC2)cnc1N1CCOCC1 [2-(6-(dimethylamino)-3-pyridinyl)-N-(2,5-di-4-morpholinyl-3-pyridinyl)-5,7-difluoro-3-methyl-4-quinolinamine]
33 | 17.5 nM | Cc1c(-c2cc(O)ccc2S(C)(=O)=O)nc2cc(F)ccc2c1Nc1cc(N2CCOCC2)cnc1N1CCOCC1 [3-(4-((2,5-di-4-morpholinyl-3-pyridinyl)amino)-7-fluoro-3-methyl-2-quinolinyl)-4-(methylsulfonyl)phenol]
34 | 10.3 nM | Cc1c(N2CCC[C@@H]2C(=O)N(C)C)nc2cc(F)cc(F)c2c1Nc1cncc(N2CCOCC2)c1 [1-(5,7-difluoro-3-methyl-4-((5-(4-morpholinyl)-3-pyridinyl)-amino)-2-quinolinyl)-N,N-dimethyl-D-prolinamide]
35 | 7.97 nM | Cc1c(-c2ccccn2)nc2cc(F)cc(F)c2c1Nc1cc(C#N)cc(N2CCOCC2)c1 [3-((5,7-difluoro-3-methyl-2-(2-pyridinyl)-4-quinolinyl)amino)-5-(4-morpholinyl)benzonitrile]
36 | 4.37 nM | Cc1c(-c2cc(Cl)ccn2)nc2cc(F)cc(F)c2c1Nc1cc(N2CCOCC2)cnc1N1CCOCC1 [2-(4-chloro-2-pyridinyl)-N-(2,5-di-4-morpholinyl-3-pyridinyl)-5,7-difluoro-3-methyl-4-quinolinamine]
